Assay results taken from patent publication US20220117911A1, “METHODS AND COMPOSITIONS FOR MODULATING BLOOD-BRAIN BARRIER” (INSERM (institut National de la Santé et de la Recherche …, priority 2019, published 2022).
Several values for one entry are separate records, joined by “and”; a condition that tells them apart may be missing. Equal entries are not always repeated. Where two headings read alike, the source gives them in different places.

Assays:
TRPV2 = molecular target: T1, TRPV2 (Homo sapiens, UniProt Q9Y5S1); assay: Intracellular Ca2+ signal measurements (Fluo-4-AM) in hCMEC/D3 cells; format: cell-based; conditions: for effect on heat-induced [Ca2+]i signals: heat stimulation
T1 construct: endogenous in cells; host or cells: hCMEC/D3 (human cerebral microvessel endothelial cell line)
T1 sequence (Q9Y5S1 1-764): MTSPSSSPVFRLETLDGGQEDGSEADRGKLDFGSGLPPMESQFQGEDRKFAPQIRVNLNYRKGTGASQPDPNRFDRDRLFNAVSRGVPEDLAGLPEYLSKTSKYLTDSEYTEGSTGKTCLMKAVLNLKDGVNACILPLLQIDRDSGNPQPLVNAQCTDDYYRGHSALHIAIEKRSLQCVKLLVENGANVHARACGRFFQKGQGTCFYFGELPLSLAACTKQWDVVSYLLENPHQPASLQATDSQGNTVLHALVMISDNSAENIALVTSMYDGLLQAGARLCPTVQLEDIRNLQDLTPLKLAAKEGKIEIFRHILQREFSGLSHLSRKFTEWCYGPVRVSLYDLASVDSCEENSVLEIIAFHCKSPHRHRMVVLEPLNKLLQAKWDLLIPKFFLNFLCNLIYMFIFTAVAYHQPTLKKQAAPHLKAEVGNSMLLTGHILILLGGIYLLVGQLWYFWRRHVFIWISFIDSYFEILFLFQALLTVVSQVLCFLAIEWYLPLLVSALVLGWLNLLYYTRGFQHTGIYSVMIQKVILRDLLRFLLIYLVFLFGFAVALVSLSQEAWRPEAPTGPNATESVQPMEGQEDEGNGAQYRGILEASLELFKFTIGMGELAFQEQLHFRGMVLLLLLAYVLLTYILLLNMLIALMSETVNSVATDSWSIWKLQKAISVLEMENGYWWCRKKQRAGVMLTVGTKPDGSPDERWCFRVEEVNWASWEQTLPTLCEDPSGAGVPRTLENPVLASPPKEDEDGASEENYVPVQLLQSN
Description: Fluorescence measurement of intracellular Ca2+ ([Ca2+]i) concentration was performed in accordance with our optimized protocol as below: hCMEC/D3 cells grown at 100% confluence in 24-well plates were loaded with 2 μM of fluorescent marker, Fluo-4-AM (λex=496 nm, λem=516 nm, F14201, Thermo Fisher Scientific) for 45 min at 37° C. in a loading Hank's buffer (500 μL/well). The cells were washed and replaced with 500 μL/well buffer. After additional 10 min of incubation at 37° C., the 24-well plates were placed into a Victor™ X2 fluorescent heated microplate reader (PerkinElmer, France). When applying antagonists, cells were pre-treated with the compound for 5 min before to start fluorescent signals recording. Data are expressed as F1/F0, where F0 is the average fluorescence of the control group (no agent or no heat stimulation application) and F1 is the actual fluorescence at the corresponding time for the treated group. To visualize clearly and directly the effect of the chemical agonist and antagonist on [Ca2+]i change, hCMEC/D3 cells were seeded in a 8-well ibidi (1.5 polymer coverslip, CliniSciences). Then, the μ-Slide containing 250 μL/well normal buffer was placed on the platform of a ZEISS 515 […] confocal microscope (Carl Zeiss), and fluo-4-AM loaded cells were photographed using a time-lapse mode every 60 s during 20 min in a humidified 5% CO2 atmosphere at 37° C. Images of hCMEC/D3 were analysed in Fiji app running Image J software.
(§1) Data are expressed as mean value±SEM. Statistical analysis was performed using ANOVA with Dunnett a posteriori test to compare different groups with the control. P value<0.05 was considered statistically significant. […] To calculate IC50 of antagonists (RR and TNL), the concentration-response data were fitted to a logistic function as follows: Y=100/(1+10(log IC50−X)×HillSlope) where Y is the normalized response from 100% down to 0%, X is the decimal log of concentration, HillSlope is the slope. Data fitting was all performed in GraphPad Prism 5.01 software.

[1] = MTT cell viability assay in hCMEC/D3 cells; format: cell-based, human; conditions: human, read-out: decrease of cell viability (MTT)
Description: (§2) To study the effects of TRPV2 agonists and antagonists and silencing TRPV2 on cell viability, the 3-(4,5-dimethyl-2-thiazolyl)-2,5-diphenyl-2-H-tetrazolium bromide assay (MTT, Sigma-Aldrich) evaluating cell mitochondrial activity and Trypan blue exclusion assay evaluating living cells were applied. Cells were firstly treated under three conditions mentioned above (Control, negative siRNA, and TRPV2 siRNA) in a 6-well plate. After transfection, cells were re-distributed in a new plate with the same cell number and the same medium in each well. Cell viability were analysed at 0, 24 h, 48 h, 72 h after re-distribution. For MTT assay, cells were re-distributed in 96-well plates at a density of 1×10^4 cells/well, 6 wells per group, one plate four each time. For Trypan blue exclusion assay, cells were re-distributed in 24-well plates at a density of 5×10^4 cells/well. The number of living cells (not stained by Trypan blue) in each well was counted in a TC20™ Automated Cell Counter (Bio-Rad) at each time point, with 3 wells per group.
(§3) After 24 h treatment, the wells were replaced with 100 μL/well fresh complete medium, and 20 μL MTT solution (diluted in PBS buffer, 5 mg·mL-1) was added to each well. And, the plates were kept at 37° C. for an additional 4 h. Then the medium was removed and replaced with 100 μL DMSO per well, in order to dissolve the formazan. The plates were read using a Victor™ X2 microplate reader at 490 nm (PerkinElmer).
as §1

hCMEC/D3 cells [2] = assay: MTT cell viability assay in hCMEC/D3 cells; format: cell-based, human; conditions: for CBD-induced proliferation level (MTT, CTL=100%): 3 μM CBD
Description: as §2, §3, §1

hCMEC/D3 cells [3] = assay: Trypan blue exclusion assay (number of viable cells) in hCMEC/D3 cells; format: cell-based, human
Description: as §2

hCMEC/D3 cells [4] = assay: ATP CellTiter-Glo luminescent cell viability assay in hCMEC/D3 cells; format: cell-based, human
Description: FIG. 4: Pharmacological and genetic inhibition of TRPV2 reverse CBD-induced cell death of hCMEC/D3 cells. […] Cell viability was measured by ATP CellTiter-Glo luminescent cell viability assay. […] Cell viability was measured by ATP CellTiter-Glo luminescent cell viability assay. […] (D) Effect of silencing TRPV2 in CBD-induced cell cytotoxicity. […] Data are expressed as mean±SEM.
To further validate the involvement of TRPV2 in CBD-induced cell death of hCMEC/D3 cells, pharmacological and genetic inhibition strategies were used. The number of viable cells was evaluated by quantitating total ATP in cells treated by CBD. […] This further indicates the role of TRPV2 at least partly in the CBD-induced cell death.

hCMEC/D3 cells [5] = assay: Wound healing migration assay in hCMEC/D3 cells; format: cell-based, human; conditions: for effect on cell migration vs control group: 3 μM CBD
Description: Cell migration was determined with wound healing assay in hCMEC/D3 as reported previously20. Briefly, a standard wound was created by scratching the cell monolayer of hCMEC/D3 cells with a sterile 200 μL plastic pipette tip and line makers were made at the bottom of plates to indicate the wound edges. After removing cell fragments, the cells were incubated at 37° C. with medium containing 5% FBS. In order to minimize avoid the effect of cell proliferation on would healing assay, the medium was absent of bFGF. The areas of the wound and wound repair activity were photographed by phase contrast microscope (Olympus, Japan) at 0, 4, 8, 24 h. […] After 3 days, cells were prepared for wound healing assay with 100% confluence. […] To study the effects of silencing TRPV2 channel on cell proliferation, the cells were firstly treated under three conditions mentioned above (Control, negative siRNA, and TRPV2 siRNA) in a 6-wells plate. After transfection, the cells were re-distributed in 12-well plate at a density of 5×10^5 cells/well in 750 μL complete culture medium. When cells were 100% confluent, the wound healing assay was started following the above-mentioned protocol. Assays were performed 3 times in triplicate.

hCMEC/D3 cells [6] = assay: Tubulogenesis, 3D culture of hCMEC/D3 cells in Matrigel; format: cell-based, human; conditions: for increase of closing tube number vs control group: 3 μM CBD
Description: 3D culture of hCMEC/D3 human BBB endothelial cells was performed using Matrigel (Corning). Matrigel, stored at 4° C. at least 24 h before the assay, was added to a 48-well plate (150 μL/well), and then the plate was incubated at 37° C. for 1 h to allow Matrigel polymerization. […] 500 μL/well fresh complete medium containing cells were distributed in the 48-well plate. After 2 h, 7 h and 24 h incubation, images of the wells in the plate were taken. […] Assays were performed 3 times in triplicate and tubule-like structure lumen count was realized with Image J software.

hPBMEC monolayers = assay: TEER of in vitro human BBB model using hPBMECs on Transwell; format: cell-based; conditions: 50 μM TNL co-treatment with 1 μM CBD
Description: Human Primary Brain Microvascular Endothelial Cells (hPBMECs). Brain capillary endothelial cells were isolated from surgical resections of patients with brain tumors. […] In brief, brain capillaries were isolated using soft digestion of patient brain peritumoral tissues and then seeded. Brain primary microvascular endothelial cells were shortly amplified and seeded on Transwell® (Corning) with microporous membranes (pore size: 0.4 μm) in monoculture or in co-culture with the same patient's fresh primary human cultured astrocytes. Cells were cultured in EBM-2 medium (Lonza, Basel, Switzerland) supplemented with 20% serum and growth factors (Sigma).
After 24 h co-culture, CBD (1 μM) or the same proportion of vehicle was added into the cell inserts. To study the involvement of TRPV2 in CBD-induced effect, cells were pre-treated with 50 μM TNL for 5 min before adding CBD. The TEER values expressed in Ω·cm2 were recorded after 1, 2, 4, 10, 24, 31, 48, 72, 96, 120 h of CBD treatment.

SMILES: C=C(C)[C@@H]1CCC(C)=C[C@H]1c1c(O)cc(CCCCC)cc1O [CBD, cannabidiol]
- increase of [Ca2+]i area under the curve (AUC) vs control (TRPV2; 30 μM CBD, 20 min incubation): 1.5 fold
- lowest concentration with significant increase of [Ca2+]i AUC (TRPV2; 20 min incubation): 0.3 µM
- cytotoxicity at 24 h, 15 μM ([1]; hCMEC/D3 cells silenced for TRPV2 (TRPV2 siRNA)): 6%
- cytotoxicity at 24 h, 15 μM ([1]; hCMEC/D3 cells treated with negative (NEG) siRNA): 27%
- cytotoxicity at 24 h, 15 μM ([1]; hCMEC/D3 cells): 37%
- cytotoxicity at 48 h, 15 μM ([1]; hCMEC/D3 cells): 77%
- cytotoxicity at 72 h, 15 μM ([1]; hCMEC/D3 cells): 78%
- CBD-induced proliferation level (MTT, CTL=100%) (hCMEC/D3 cells [2]; 24 h, siNEG cells): 125.9±4.0%
- CBD-induced proliferation level (MTT, CTL=100%) (hCMEC/D3 cells [2]; 24 h, siTRPV2 cells): 113.0±2.1%
- increase of MTT absorbance vs control group (hCMEC/D3 cells [2]; 10 μM CBD, 24 h): 22.0±1.2%
- lowest concentration with significantly increased MTT absorbance (hCMEC/D3 cells [2]; 24 h): 0.3 µM
- EC50 (hCMEC/D3 cells [2]; Homo sapiens, hCMEC/D3, 24 h, read-out: EC50 of CBD effect on MTT absorbance (cell viability)): ~0.3 µM
- increase of the number of viable cells (hCMEC/D3 cells [3]; 3 μM CBD): 1.2 fold
- effect on cell viability (ATP) (hCMEC/D3 cells [4]; 30 μM CBD, 2 h): significantly decreased
- effect on cell migration vs control group (hCMEC/D3 cells [5]; 4 h post wound): significant pro-migration effect
- effect on cell migration vs control group (hCMEC/D3 cells [5]; 8 h post wound, p<0.05): significant increase
- increase of closing tube number vs control group (hCMEC/D3 cells [6]; 7 h): 41% and 42.0±14.0%
- increase of closing tube number vs control group (hCMEC/D3 cells [6]; 24 h): 73% and 73.0±15.3%

SMILES: CC(C)C[C@H](NC(=O)c1cc2ccccc2s1)C(=O)N1CCN(C(=O)[C@H](CO)NS(=O)(=O)c2ccc(Cl)cc2Cl)CC1 [GSK1016790A]
- effect on cell viability (MTT) (hCMEC/D3 cells [2]; GSK1016790A 1 μM, 24, 48 or 72 h): did not alter cell viability

SMILES: N.N.N.N.N.N.N.N.N.N.N.N.N.N.[Cl-].[Cl-].[Cl-].[Cl-].[Cl-].[Cl-].[O-2].[O-2].[Ru+3].[Ru+3].[Ru+4] [RR, ruthenium red]
- effect on CBD-induced elevation of [Ca2+]i (TRPV2; 10 μM RR pretreatment, 15 μM CBD): fully abolished
- IC50 (TRPV2; 15 μM CBD, antagonist pre-treatment 5 min, read-out: IC50 of inhibition of CBD-mediated elevation of [Ca2+]i): 7.7 ± 1.7 µM
- effect on heat-induced [Ca2+]i signals (TRPV2; RR): significantly decreased

SMILES: COc1ccc(/C=C/C(=O)Nc2ccccc2C(=O)O)cc1OC [TNL, tranilast]
- effect on CBD-mediated lasting elevation of [Ca2+]i (TRPV2; 100 μM TNL, 15 μM CBD): fully abolished
- effect on heat-induced [Ca2+]i signals (TRPV2; TNL 50 or 100 μM): significantly decreased
- effect on CBD-induced increase of viable cells (hCMEC/D3 cells [3]; 50 μM TNL with 3 μM CBD): totally inhibited
- effect on CBD-induced decrease in cell viability (ATP) (hCMEC/D3 cells [4]; 50 μM TNL, 15 μM CBD, 48 h): partly reversed
- effect on CBD-induced decrease in cell viability (ATP) (hCMEC/D3 cells [4]; 100 μM TNL, 30 μM CBD, 2 h): reversed
- effect on pro-migration effect of CBD (hCMEC/D3 cells [5]; 50 μM TNL co-treatment with 3 μM CBD, 8 h): totally inhibited
- effect on CBD-induced tube formation (hCMEC/D3 cells [6]; 50 μM TNL co-treatment with 3 μM CBD, 7 h): inhibited
- effect on CBD-induced tube formation (hCMEC/D3 cells [6]; 50 μM TNL with 3 μM CBD, 24 h): totally reversed
- effect on CBD-induced TEER increase (hPBMEC monolayers): totally inhibited
